# According to patent US20130225694A1, “COMPOSITIONS AND METHODS OF INHIBITING RETINAL DEGENERATION” (Oklahoma Medical Research Foundation, priority 2012, published 2013):
# Read-outs that look alike come from different tables or passages of the source.
# Assays:
# rod photoreceptors = assay: Recovery of rod photoresponses after bleaching (dark adaptation ERG) in rats; format: in vivo, rat; details: 50 mg/kg IP
# Experimental: Possible defects in the visual cycle were analyzed by measuring the time course of dark adaptation (recovery of rod photoreceptor sensitivity) following a bleaching light exposure. Rats were fully dark-adapted and injected intraperitoneally with PBN (50 mg/kg) or saline. Full-field scotopic ERGs for both eyes were recorded after 3 hours of PBN injection. A single test flash of 2.3 log cd·s/m^2 was presented to elicit the rod a-wave response under fully dark-adapted conditions. Rats were then exposed to a steady field of log 2.3 cd·s/m^2 for 2 minutes in the Ganzfeld dome to bleach rod photoreceptors. Immediately following the bleaching period (time=0 minutes) and every 10 minutes thereafter (time=10, 20, 30, 40, 50, and 60 minutes), the same test flash of 2.3 log cd·s/m^2 was presented. The a-wave responses at the indicated times after bleaching were normalized to the initial dark-adapted response for each rat.
# Effect of PBN on the rate of recovery of rod photoresponses: dark adaptation ERG—The damaging effect of bright light requires a functional rhodopsin photopigment (23). It is well established that PBN protects against light damage (1), and the inventors previously speculated that PBN, as part of its protective mechanism, might down-regulate rhodopsin regeneration rate (2). […]
# rhodopsin = assay: Rhodopsin regeneration after topical eye drops in mice; format: in vivo, Balb/c mice; details: for rhodopsin recovered in 1 h in the dark: 10% PBN eye drops, DA control is 100%
# Experimental: Panel A: Application scheme and harvesting of the eye. 3 h group received 2 applications and 6 h group received 3 applications. Panel B: Rhodopsin content was measured as pmole/eye. In 1 h in the dark, untreated eyes (NT-LA 1 h DA, no treatment-light adapted followed by 1 hour dark adaptation) and vehicle-treated eyes recovered 75-80% rhodopsin [dark-adapted (DA) control is 100%], whereas 3 h PBN recovered only 43% and 6 h PBN only 29%. (***P<0.0001 compared to vehicle, n=8; ##p<0.005 between 3 h and 6 h group, n=8).
# An eye drop formulation was used with various absorption enhancers for topical application of PBN to mouse eyes. […] One hour dark adaptation followed by light causes 75-80% recovery of bleachable rhodopsin in the Balb/c mice (FIG. 18B, NT-LA 1 h DA). The eye drop without PBN (vehicle) had no effect on rhodopsin regeneration (FIG. 18B, vehicle).
# Eye drop formulations were prepared as described in Example 7 and contained 5% or 10% of a PBN derivative. The eye drop formulations were applied to Balb/c mice by the 6 h group application scheme shown in FIG. 18A, in which the eye drops were applied at 6, 3, and 0 h before dark adaptation. The eye drops were applied to completely light-adapted mouse eyes, and the mice were then moved to the dark for 1 h to allow the regeneration of bleachable rhodopsin. One hour dark adaptation followed by light causes […] recovery of bleachable rhodopsin in untreated mice (00, No Treatment). The eye drop without any nitrones (vehicle) had no effect on rhodopsin regeneration (000, vehicle).
# RPE65 isomerohydrolase = target: T1, RPE65 isomerohydrolase (Bos taurus, UniProt Q28175); assay: In vitro RPE65 isomerohydrolase assay with bovine RPE microsomes (Example 3); format: biochemical
# T1 construct: Bovine RPE microsomes were used as a source of the RPE65 protein; from tissue; host or cells: bovine RPE microsomes
# Excerpt: In this Example, the effect of several PBN analogs on RPE65 isomerohydrolase activity was investigated in an in vitro assay. The chemical structures of the PBN analogs utilized are described herein above. Bovine RPE microsomes were used as a source of the RPE65 protein and all-trans-[^3H] retinol was a substrate for the isomerohydrolase assay. The produced 11-cis-[^3H] retinol was quantified by normal phase HPLC with flow scintillation analyzer. The inhibition of isomerohydrolase activity was dependent on the PBN analog's concentration.
# FIG. 9 also illustrates the calculation of IC50 values for the two difluoro-PBN analogs. IC50 values are the concentration of the inhibitor that inhibits 50% of the enzymatic activity. Therefore, the smaller the IC50 value, the better the drug.
# [1] = test system: retinal retinol dehydrogenases (RDHs); assay: Assay for retinal RDH activity in mouse retinal microsomes; format: biochemical; details: 2 mM PBN, NADPH-dependent reduction of all-trans-retinal
# Experimental: Assay for retinal RDH activity—The effect of PBN on retinal dehydrogenase (RDH) enzymes was determined in vitro using mouse retinal microsomes. […] Homogenates were centrifuged at 10,000 g for 10 minutes at 4° C. The resulting supernatants were then centrifuged at 100,000 g for 1 hour at 4° C., and microsomal pellets were resuspended in storage buffer [50 mM Tris-Cl (pH 7.2), 1 mM EDTA, 20% glycerol, 1 mM dithiothreitol, and the protease inhibitors described above]. Protein concentrations were measured, and microsomal fractions were stored at −80° C. after snap freezing in liquid nitrogen.
# Reactions were carried out in 1 ml reaction buffer [100 mM Tris-HCl (pH 7.2), 200 mM NaCl, 1 mM dithiothreitol, 2 mg/ml bovine serum albumin, and 1% (v/v) glycerol] with 5 μg of microsomes, 0 or 75 μM of NADPH, 0 or 2 mM PBN, and increasing concentrations of the substrate all-trans-retinal. […] Retinoids were extracted with 2 volumes of hexane and analyzed by HPLC. […] The peaks of all-trans-retinal (substrate) and all-trans-retinol (product of the reaction) were identified and quantified by comparison with pure retinoid isomeric standards. […] For each condition the non-enzymatic conversion of all-trans-retinal to all-trans-retinol measured in absence of NADPH was subtracted from the conversion obtained with NADPH to determine the NADPH-dependant activity of retinal RDHs. […]
# T1 sequence (Q28175 whole entry): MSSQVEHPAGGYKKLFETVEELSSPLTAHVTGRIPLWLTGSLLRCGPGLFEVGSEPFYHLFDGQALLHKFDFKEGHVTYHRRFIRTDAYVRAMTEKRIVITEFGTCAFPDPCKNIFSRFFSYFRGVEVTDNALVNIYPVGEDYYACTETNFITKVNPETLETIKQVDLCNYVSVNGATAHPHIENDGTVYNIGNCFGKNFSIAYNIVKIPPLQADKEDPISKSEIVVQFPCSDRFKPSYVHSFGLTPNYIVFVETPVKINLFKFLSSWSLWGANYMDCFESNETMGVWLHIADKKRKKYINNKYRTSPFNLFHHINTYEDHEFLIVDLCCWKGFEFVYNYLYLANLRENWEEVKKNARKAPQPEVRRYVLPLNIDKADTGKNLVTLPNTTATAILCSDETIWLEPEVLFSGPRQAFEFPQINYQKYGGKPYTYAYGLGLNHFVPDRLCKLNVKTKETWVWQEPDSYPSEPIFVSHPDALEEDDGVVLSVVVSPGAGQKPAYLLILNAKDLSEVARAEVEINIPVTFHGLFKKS
smiles,measurement,setting,value
"CC(C)(C)/[N+]([O-])=C/c1ccccc1 [Compound 1, α-phenyl-N-tert-butyl nitrone]",fully dark-adapted a-wave response,"rod photoreceptors; 2.3 log cd·s/m^2 test flash before bleach, n=4",−441.5±70.66 μV
same,recovery of the initial fully dark-adapted rod response,rod photoreceptors; 40 minutes after the bleaching illumination,25%
same,rhodopsin recovered in 1 h in the dark,rhodopsin; 3 h group (2 applications),43%
same,rhodopsin recovered in 1 h in the dark,rhodopsin; 6 h group (3 applications),29%
same,% of Rhodopsin recovery,"rhodopsin; 10% in eye drop at 6, 3 and 0 h before dark adaptation, LA + 1 h DA, DA control = 100",48.67%
same,inhibition of rhodopsin regeneration as eye drop,"rhodopsin; eye drop formulation, summary of Table 7",inhibited rhodopsin regeneration significantly
same,regeneration of bleachable rhodopsin,"rhodopsin; one drop (~50 μl) containing 10% PBN, 1 h dark",significantly inhibited
same,IC50,"RPE65 isomerohydrolase; apparent IC50, bovine RPE microsomes, all-trans-[3H] retinol substrate (Table 1), read-out: IC50 Values for the Inhibition of RPE65 Isomerohydrolase Reaction",100 µM
same,IC50,"RPE65 isomerohydrolase; in vitro RPE65 isomerohydrolase IC50 values repeated in Table 7, read-out: IC50",100 µM
same,inhibition of retinal RDH activity,[1],did not inhibit
